Tested on: dogs with advanced heart failure
Test: Hemodynamic, angiographic, echocardiographic profile in anaesthetized dogs with advanced heart failure, IV infusion
Type: in vivo, dog
Procedure: The effects of h-SCP (SEQ ID NO:1) on cardiovascular function were also assessed in anaesthetized dogs with advanced, irreversible heart failure of ischemic etiology (Sabbah et al., 1991, Am. J. Physiol., vol. 260, pp. H1379-H1384; Sabbah et al., 1994, Circulation, vol. 98, pp. 2852-2859; Chandler et al., 2002, Circ. Res., vol. 91, pp. 278-280). Progressive, advanced heart failure was produced in mongrel dogs by multiple sequential intracoronary microembolization with polystyrene latex microspheres. Dose infusions of 2.2, 4.3, and 7.3 ng/kg/min were administered intravenously over 60 minutes just following or just prior to hemodynamic, angiographic, echocardiographic, and Doppler measurements using conventional hemodynamic, angiographic, echocardiographic, and radiographic methods. The h-SCP polypeptide (SEQ ID NO:1) produced dose- (infusion-) dependent increases in LVEF and SV and decreases in left ventricular end diastolic pressure (LVEDP), left ventricular pressure during isovolumic relaxation (LV-dP/dt), systemic vascular resistance (SVR), and left ventricular end-systolic volume (LVESV) that correlated with plasma concentration. No significant change in heart rate, peak systolic aortic blood pressure, LV+dP/dt, mean pulmonary artery pressure, mean pulmonary artery wedge pressure, right atrial pressure, or myocardial oxygen consumption were recorded following any of the 1 hour intravenous infusions (Table 18 and FIGS. 12 A & B). The improvement in LV systolic and diastolic function was not associated with the development of de novo ventricular arrhythmias.
In order to determine the threshold effective dose-infusion in dogs with advanced heart failure, a further study was performed at lower dose infusions. In addition, the opportunity was taken to explore whether the increase in LVEF produced by higher dose-infusions of 4.3 ng/kg/min would remain stable over a longer infusion period, i.e. 120 minutes.
In order to understand the potential cardiovascular effects of neutralizing antibody formation to h-SCP (SEQ ID NO:1), SV30 (SEQ ID No. 118), a competitive antagonist of CRHR2, was administered to dogs (N=4) with advanced heart failure. […] These experiments with SV30 indicate that baseline cardiovascular parameters in dogs with advanced heart failure were not dependent upon endogenous hormone stimulation of CRHR2. Similar findings have been reported in healthy conscious and anaesthetized rats (Gardiner et al., J. Pharmacol. Exp. Ther., 2007, vol 321, pp. 221-226).

[1] = Table 18, IV infusion 2.2 ng/kg/min, 60 min
[2] = Table 18, IV infusion 4.3 ng/kg/min, 60 min
[3] = Table 18, IV infusion 7.3 ng/kg/min, 60 min
[4] = Table 19, IV infusion 0.22 ng/kg/min, 60 min
[5] = Table 19, IV infusion 0.43 ng/kg/min, 60 min
[6] = Table 19, IV infusion 4.3 ng/kg/min, 60 min
[7] = Table 19, IV infusion 4.3 ng/kg/min, 120 min
[8] = Table 20, SEQ ID NO: 1 4.3 ng/kg/min + AS-30

In the case of “H-TKFTLSLDVPTNIMNLLFNIAKAKNLRAQAAANAHLMAQI-NH2 [SEQ ID NO: 1, TKFTLSLDVPTNIMNLLFNIAKAKNLRAQAAANAHLMAQI-NH2]”, the “-ESV” value [1] is reported as 46 ± 1.7 mL, the CO [1] is reported as 1.56 ± 0.11 L/min and the EDV [1] is reported as 66 ± 2.5 mL. The EF [1] was 31 ± 0.5^+++,a,b %, the HR [1] was 76 ± 2 beats/min and the “LV Efficiency” value [1] was 23.0 ± 3.1%. For the same substance, the “LV+dP/dt (isovolumic contraction)” value [1] was 1477 ± 104 mmHg/sec, the “LVCBF (total left ventricular coronary blood flow)” value (shortened to “LVCBF”) [1] was 52 ± 5 mL/min and the “LVEDP (left ventricular end diastolic pressure)” value [1] was 13 ± 0.9^+ mmHg. The “LV−dP/dt (isovolumic relaxation)” value [1] was 1216 ± 44 mmHg/sec, the “MPAP (mean pulmonary artery pressure)” value [1] was 15 ± 0.5 mmHg and the “MVO2 (myocardial oxygen consumption)” value [1] was 191 ± 14 μmols/min. The “PAWP (mean pulmonary artery wedge pressure)” value [1] was 9.0 ± 0.6 mmHg, the PSAP [1] was 90 ± 3 mmHg and the “RAP (mean right atrial pressure)” value [1] was 5.7 ± 0.5 mmHg. For the same substance, the SV [1] was 20 ± 0.9^+ mL, the “SVR (systemic vascular resistance)” value [1] was 4414 ± 193 dynes-sec-cm^−5 and the “-ESV” value [2] was 43 ± 1.7 mL. For the same substance, the CO [2] was 1.61 ± 0.13 L/min, the EDV [2] was 65 ± 2.5 mL and the EF [2] was 33 ± 0.5^+++,c %. The HR [2] was 73 ± 3 beats/min, the “LV Efficiency” value [2] was 26.0 ± 4.4% and the “LV+dP/dt (isovolumic contraction)” value [2] was 1400 ± 71 mmHg/sec. The “LVCBF” value [2] was 57 ± 6 mL/min, the “LVEDP (left ventricular end diastolic pressure)” value [2] was 13 ± 0.4^+ mmHg and the “LV−dP/dt (isovolumic relaxation)” value [2] was 1094 ± 42^+ mmHg/sec. The “MPAP (mean pulmonary artery pressure)” value [2] was 15 ± 0.5 mmHg, the “MVO2 (myocardial oxygen consumption)” value [2] was 177 ± 19 μmols/min and the “PAWP (mean pulmonary artery wedge pressure)” value [2] was 10 ± 0.6 mmHg. For the same substance, the PSAP [2] was 87 ± 2 mmHg, the “RAP (mean right atrial pressure)” value [2] was 5.4 ± 0.4 mmHg and the SV [2] was 22 ± 0.9^++ mL. The “SVR (systemic vascular resistance)” value [2] was 4144 ± 243^+ dynes-sec-cm^−5, the “-ESV” value [3] was 41 ± 1.8^+ mL and the CO [3] was 1.67 ± 0.09 L/min. For the same substance, the EDV [3] was 64 ± 2.4 mL, the EF [3] was 35 ± 0.9^+++ % and the HR [3] was 74 ± 2 beats/min. The “LV Efficiency” value [3] was 23.3 ± 3.2%, the “LV+dP/dt (isovolumic contraction)” value [3] was 1398 ± 74 mmHg/sec and the “LVCBF” value [3] was 59 ± 6 mL/min. The “LVEDP (left ventricular end diastolic pressure)” value [3] was 12 ± 0.6^++ mmHg, the “LV−dP/dt (isovolumic relaxation)” value [3] was 1112 ± 82^+ mmHg/sec and the “MPAP (mean pulmonary artery pressure)” value [3] was 14 ± 0.4 mmHg. The “MVO2 (myocardial oxygen consumption)” value [3] was 196 ± 18 μmols/min, the “PAWP (mean pulmonary artery wedge pressure)” value [3] was 9.0 ± 0.3 mmHg and the PSAP [3] was 87 ± 2 mmHg. For the same substance, the “RAP (mean right atrial pressure)” value [3] was 5.0 ± 0.4 mmHg, the SV [3] was 22 ± 0.9^++ mL and the “SVR (systemic vascular resistance)” value [3] was 3958 ± 182^++ dynes-sec-cm^−5. The CO [4] was 1.37 ± 0.04 L/min, the HR [4] was 75 ± 1.1 beats/min and the “LV+dP/dt” value [4] was 1842 ± 127 mmHg/sec. It also gave an LVEDP [4] of 14 ± 1.1 mmHg, an LVEDV [4] of 66 ± 1.5 mL and an LVEF [4] of 28 ± 0.6%. The LVESV [4] was 48 ± 1.2 mL, the “LV−dP/dt” value [4] was 1448 ± 155 mmHg/sec and the MPAP [4] was 15 ± 0.7 mmHg. For the same substance, the PAWP [4] was 10.1 ± 0.6 mmHg, the PSAP [4] was 97 ± 3.3 mmHg and the SV [4] was 18 ± 0.5 mL. It also gave an SVR [4] of 4757 ± 287 dynes-sec-cm^−5, a CO [5] of 1.50 ± 0.04 L/min and an HR [5] of 77 ± 1.0 beats/min. For the same substance, the “LV+dP/dt” value [5] was 1691 ± 96 mmHg/sec, the LVEDP [5] was 13 ± 1.4 mmHg and the LVEDV [5] was 65 ± 1.1 mL. For the same substance, the LVEF [5] was 30 ± 0.9%, the LVESV [5] was 45 ± 1.2 mL and the “LV−dP/dt” value [5] was 1249 ± 120 mmHg/sec. The MPAP [5] was 15 ± 0.8 mmHg, the PAWP [5] was 9.6 ± 0.7 mmHg and the PSAP [5] was 93 ± 3.6 mmHg. For the same substance, the SV [5] was 19 ± 0.5 mL, the SVR [5] was 4134 ± 195 dynes-sec-cm^−5 and the CO [6] was 1.68 ± 0.06^++,a,c L/min. The HR [6] was 79 ± 2.0 beats/min, the “LV+dP/dt” value [6] was 1667 ± 88 mmHg/sec and the LVEDP [6] was 12 + 1.4 mmHg. The LVEDV [6] was 63 ± 1.3 mL, the LVEF [6] was 34 ± 1.4^+++,b,e % and the LVESV [6] was 42 ± 1.4^++,a mL. The “LV−dP/dt” value [6] was 1166 ± 82 mmHg/sec, the MPAP [6] was 15 ± 0.8 mmHg and the PAWP [6] was 9.0 ± 0.6 mmHg. For the same substance, the PSAP [6] was 92 ± 4.1 mmHg, the SV [6] was 21 ± 0.8^+++,a,c mL and the SVR [6] was 3638 ± 191^+,d dynes-sec-cm^−5. For the same substance, the CO [7] was 1.83 ± 0.09^+++,b,e L/min, the HR [7] was 81 ± 3.6 beats/min and the “LV+dP/dt” value [7] was 1640 ± 88 mmHg/sec. For the same substance, the LVEDP [7] was 12 ± 1.2 mmHg, the LVEDV [7] was 62 ± 1.3 mL and the LVEF [7] was 37 ± 1.2^+++,b,e %. For the same substance, the LVESV [7] was 39 ± 1.4^+++,b,e mL, the “LV−dP/dt” value [7] was 1124 ± 92 mmHg/sec and the MPAP [7] was 15 ± 0.9 mmHg. For the same substance, the PAWP [7] was 9.4 ± 0.8 mmHg, the PSAP [7] was 92 ± 4.3 mmHg and the SV [7] was 23 ± 0.6^+++,a,e mL. For the same substance, the SVR [7] was 3372 ± 238^++,a,c dynes-sec-cm^−5, the CO [8] was 1.55 ± 0.08 L/min and the HR [8] was 82 ± 4 beats/min. The “LV+dP/dt” value [8] was 1618 ± 79 mmHg/sec, the LVEDP [8] was 15 ± 2 mmHg and the LVEDV [8] was 68 ± 2.1 mL. The LVEF [8] was 28 ± 0.5%, the LVESV [8] was 49 ± 1.8 mL and the MPAP [8] was 16 ± 0.8 mmHg. The PSAP [8] was 90 ± 4 mmHg, the SV [8] was 19 ± 0.4 mL and the “infusion dose with minimal effect on left ventricular systolic and diastolic function” value (dogs with advanced heart failure, 60 minutes) was 0.43 ng/kg/min.
